Tests used:
Assay in all cases: relative viability (nuclei count vs DMSO), 5 days (fraction); higher = more cells survive
[1] = compound: C1COCCN1C2=NC(=NC3=C2OC4=C3C=CC=N4)C5=CC(=CC=C5)NC(=O)C6=CN=C(C=C6)N
Summary of the method: (§1)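 Nuclei counted with MetaXpress define viability as the ratio of treated to vehicle wells, given as a median across plates. The lung cancer cell lines were in 1536-well plates, pinned with five √10-spaced library-drug doses and imaged at 4× after 5 days and Hoechst staining. Plates passed with control CV below 25% and at least one doubling.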

SGI-1776 = compound: CN1CCC(CNc2ccc3ncc(-c4cccc(OC(F)(F)F)c4)n3n2)CC1 [SGI-1776]
Summary of the method: as §1

Entinostat = compound: Nc1ccccc1NC(=O)c1ccc(CNC(=O)OCc2cccnc2)cc1 [Entinostat]
Summary of the method: as §1

SGI-1776 + Crizotinib = compound: CN1CCC(CNc2ccc3ncc(-c4cccc(OC(F)(F)F)c4)n3n2)CC1 [SGI-1776] + C[C@@H](Oc1cc(-c2cnn(C3CCNCC3)c2)cnc1N)c1c(Cl)ccc(F)c1Cl [Crizotinib] (partner 1 µM)
Summary of the method: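 The day after seeding in 1536-well plates, lung cancer cell lines were treated by pin tool with a single drug, or with a fixed anchor-drug dose together with five library-drug doses (not always all listed) in √10 steps. After 5 days, a combined fix-and-stain solution (final 0.05% Triton X-100, 1% formaldehyde, 1 ug/ml Hoechst) was added. Nuclei counted on 4× images gave relative viability as treated counts over vehicle counts, reported as the median of duplicate plates.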

Cell Line | relative viability ([1]; 0.02 µM) | relative viability ([1]; 0.06325 µM) | relative viability ([1]; 0.2 µM) | relative viability ([1]; 0.6325 µM) | relative viability ([1]; 2 µM) | relative viability (SGI-1776; 0.08 µM) | relative viability (SGI-1776; 0.8 µM) | relative viability (SGI-1776; 2.53 µM) | relative viability (SGI-1776; 8 µM) | relative viability (Entinostat; 0.02 µM) | relative viability (Entinostat; 0.06325 µM) | relative viability (Entinostat; 0.2 µM) | relative viability (Entinostat; 0.6325 µM) | relative viability (Entinostat; 2 µM) | relative viability (SGI-1776 + Crizotinib; first compound 0.08 µM) | relative viability (SGI-1776 + Crizotinib; first compound 0.8 µM) | relative viability (SGI-1776 + Crizotinib; first compound 2.53 µM) | relative viability (SGI-1776 + Crizotinib; first compound 8 µM)
NCI-H1437 | 0.978 | 1 | 0.957 | 0.995 | 0.56 | 1.02 | 1.04 | 0.972 | 0.887 | 0.952 | 0.652 | 0.476 | 0.34 | 0.237 | 0.869 | 0.9 | 1.02 | 0.952
NCI-H1563 | 0.938 | 0.992 | 0.859 | 0.786 | 0.758 | 1 | 1.05 | 0.925 | 0.756 | 0.938 | 0.959 | 0.887 | 0.816 | 0.776 | 0.833 | 0.888 | 0.906 | 0.785
NCI-H1650 | 0.865 | 1.01 | 0.8 | 0.896 | 0.618 | 0.945 | 0.879 | 0.84 | 0.442 | 0.999 | 0.929 | 0.964 | 0.635 | 0.334 | 0.86 | 0.999 | 0.559 | 0.231
NCI-H1651 | 0.994 | 0.994 | 0.978 | 0.951 | 0.8 | 1 | 0.999 | 0.971 | 0.929 | 1.02 | 0.971 | 1.02 | 0.908 | 0.692 | 0.866 | 0.834 | 0.814 | 0.879
NCI-H1666 | 1.08 | 0.994 | 0.975 | 0.826 | 0.764 | 0.98 | 1.02 | 0.98 | 0.899 | 1.1 | 1.05 | 1.08 | 0.799 | 0.514 | 1.08 | 0.934 | 0.803 | 0.668
NCI-H1703 | 0.805 | 0.975 | 0.76 | 0.685 | 0.505 | 0.909 | 0.796 | 0.588 | 0.218 | 1.05 | 1.3 | 1.33 | 1.03 | 0.646 | 1.17 | 0.521 | 0.272 | 0.124
NCI-H1734 | 0.994 | 1.06 | 0.929 | 0.931 | 0.613 | 0.946 | 0.945 | 1.04 | 0.842 | 1.04 | 1.16 | 1.04 | 0.862 | 0.628 | 0.658 | 0.686 | 0.617 | 0.402
NCI-H1755 | 0.997 | 1.06 | 0.999 | 0.956 | 0.841 | 0.954 | 0.993 | 0.945 | 0.819 | 0.98 | 0.94 | 0.927 | 0.665 | 0.467 | 0.863 | 0.898 | 0.89 | 0.808
NCI-H1792 | 0.953 | 0.965 | 0.893 | 0.655 | 0.393 | 1.01 | 0.984 | 0.859 | 0.662 | 1.16 | 1.1 | 1.02 | 0.649 | 0.451 | 1.04 | 1.05 | 0.965 | 1.09
NCI-H1915 | 1.02 | 1.06 | 1 | 1.03 | 0.74 | 1.03 | 0.987 | 0.995 | 1 | 1.01 | 0.997 | 1.01 | 0.573 | 0.392 | 0.945 | 0.864 | 0.833 | 0.918
NCI-H1944 | 0.96 | 1.01 | 0.931 | 0.985 | 0.918 | 0.968 | 1.06 | 0.981 | 0.739 | 0.933 | 0.851 | 0.714 | 0.321 | 0.261 | 1.1 | 0.956 | 1.03 | 0.867
NCI-H1975 | 0.881 | 0.968 | 0.895 | 0.874 | 0.684 | 1.06 | 1 | 0.925 | 0.79 | 0.942 | 0.826 | 0.784 | 0.466 | 0.267 | 0.999 | 0.833 | 0.771 | 0.441
NCI-H1993 | 0.981 | 0.953 | 0.797 | 0.946 | 0.736 | 0.926 | 1.04 | 0.924 | 0.733 | 0.986 | 1.02 | 0.899 | 0.805 | 0.645 | 0.917 | 0.894 | 0.858 | 0.725
NCI-H2009 | 0.979 | 1.09 | 0.971 | 0.94 | 0.846 | 1.08 | 0.992 | 1.05 | 0.858 | 1.02 | 0.974 | 0.969 | 0.796 | 0.644 | 1.04 | 1.02 | 1.07 | 0.675
NCI-H2023 | 1.08 | 1.13 | 0.85 | 0.83 | 0.496 | 0.983 | 1.04 | 0.853 | 0.598 | 0.849 | 0.786 | 0.495 | 0.166 | 0.0931 | 0.565 | 0.621 | 0.56 | 0.333

Source: the supplement of paper PMC10307832
